Reference: patent publication US4287206A, “Halogen derivatives of 8-hydroxycarboxylic acids; the processes for their preparation and medicaments in which they are present” (priority 1978, dated 1981)

How the values were obtained:
mice [1] = experiment: Motor activity in mice (activity meters with photoelectric cells); assay type: in vivo
Experimental: The motor activity was determined with the aid of activity meters having photoelectric cells (Boissier and Simon, Arch. int. Pharmacodyn. 1965, 158, 212-221). A minimum of 10 animals was always used per batch.
The mice are placed in the activity meter just after the oral or intraperitoneal administration of the product acccording to the invention, obtained in accordance with Example I. The motor activity is measured as from the introduction into the activity meter up to the 60th minute. The counters are read after 30 minutes, then reset to 0 and read every 10 minutes for 30 minutes.

mice [2] = experiment: Interaction with barbital sodium (sleep induced by barbital sodium in mice); assay type: in vivo; conditions: barbital sodium 180 mg.kg^-1 i.p.
Experimental: Interaction with barbital sodium
At time 0, the mice receive, by intraperitoneal or oral administration, distilled water or the medicament according to the invention. After 30 minutes, they receive barbital sodium (180 mg.kg^-1) by intraperitoneal administration.

## CC1CC(c2ccc(Cl)cc2)C(c2ccccc2)C(=O)O1 (stereo not drawn) [Example I, trans-4-(4'-chlorophenyl)-6-methyl-3-phenyl-3,4,5,6-tetrahydropyrone-2]
Mice [1]; Table Ia, 1 mg/kg intraperitoneal, 30 + 10 min
  Number of rays passed through by mice: 76
Mice [1]; Table Ia, 1 mg/kg intraperitoneal, 30 + 20 min
  Number of rays passed through by mice: 163
Mice [1]; Table Ia, 1 mg/kg intraperitoneal, 30 + 30 min
  Number of rays passed through by mice: 235
Mice [1]; Table Ia, 1 mg/kg intraperitoneal, 30 min
  Number of rays passed through by mice: 400
Mice [1]; Table Ia, 2 mg/kg intraperitoneal, 30 + 10 min
  Number of rays passed through by mice: 114
Mice [1]; Table Ia, 2 mg/kg intraperitoneal, 30 + 20 min
  Number of rays passed through by mice: 231
Mice [1]; Table Ia, 2 mg/kg intraperitoneal, 30 + 30 min
  Number of rays passed through by mice: 331
Mice [1]; Table Ia, 2 mg/kg intraperitoneal, 30 min
  Number of rays passed through by mice: 474
Mice [1]; Table Ia, 4 mg/kg intraperitoneal, 30 + 10 min
  Number of rays passed through by mice: 129
Mice [1]; Table Ia, 4 mg/kg intraperitoneal, 30 + 20 min
  Number of rays passed through by mice: 269
Mice [1]; Table Ia, 4 mg/kg intraperitoneal, 30 + 30 min
  Number of rays passed through by mice: 322
Mice [1]; Table Ia, 4 mg/kg intraperitoneal, 30 min
  Number of rays passed through by mice: 529
Mice [1]; Table Ia, 4 mg/kg oral, 30 + 10 min
  Number of rays passed through by mice: 139
Mice [1]; Table Ia, 4 mg/kg oral, 30 + 20 min
  Number of rays passed through by mice: 257
Mice [1]; Table Ia, 4 mg/kg oral, 30 + 30 min
  Number of rays passed through by mice: 386
Mice [1]; Table Ia, 4 mg/kg oral, 30 min
  Number of rays passed through by mice: 462
Mice [1]; Table Ia, 8 mg/kg intraperitoneal, 30 + 10 min
  Number of rays passed through by mice: 147
Mice [1]; Table Ia, 8 mg/kg intraperitoneal, 30 + 20 min
  Number of rays passed through by mice: 309
Mice [1]; Table Ia, 8 mg/kg intraperitoneal, 30 + 30 min
  Number of rays passed through by mice: 467
Mice [1]; Table Ia, 8 mg/kg intraperitoneal, 30 min
  Number of rays passed through by mice: 659
Mice [1]; Table Ia, 8 mg/kg oral, 30 + 10 min
  Number of rays passed through by mice: 157
Mice [1]; Table Ia, 8 mg/kg oral, 30 + 20 min
  Number of rays passed through by mice: 314
Mice [1]; Table Ia, 8 mg/kg oral, 30 + 30 min
  Number of rays passed through by mice: 461
Mice [1]; Table Ia, 8 mg/kg oral, 30 min
  Number of rays passed through by mice: 478
Mice [1]; Table Ia, 16 mg/kg intraperitoneal, 30 + 10 min
  Number of rays passed through by mice: 176
Mice [1]; Table Ia, 16 mg/kg intraperitoneal, 30 + 20 min
  Number of rays passed through by mice: 336
Mice [1]; Table Ia, 16 mg/kg intraperitoneal, 30 + 30 min
  Number of rays passed through by mice: 465
Mice [1]; Table Ia, 16 mg/kg intraperitoneal, 30 min
  Number of rays passed through by mice: 763
Mice [1]; Table Ia, 16 mg/kg oral, 30 + 10 min
  Number of rays passed through by mice: 232
Mice [1]; Table Ia, 16 mg/kg oral, 30 + 20 min
  Number of rays passed through by mice: 428
Mice [1]; Table Ia, 16 mg/kg oral, 30 + 30 min
  Number of rays passed through by mice: 636
Mice [1]; Table Ia, 16 mg/kg oral, 30 min
  Number of rays passed through by mice: 629
Mice [1]; Table Ia, 32 mg/kg intraperitoneal, 30 + 10 min
  Number of rays passed through by mice: 187
Mice [1]; Table Ia, 32 mg/kg intraperitoneal, 30 + 20 min
  Number of rays passed through by mice: 422
Mice [1]; Table Ia, 32 mg/kg intraperitoneal, 30 + 30 min
  Number of rays passed through by mice: 594
Mice [1]; Table Ia, 32 mg/kg intraperitoneal, 30 min
  Number of rays passed through by mice: 891
Mice [1]; Table Ia, 32 mg/kg oral, 30 + 10 min
  Number of rays passed through by mice: 270
Mice [1]; Table Ia, 32 mg/kg oral, 30 + 20 min
  Number of rays passed through by mice: 587
Mice [1]; Table Ia, 32 mg/kg oral, 30 + 30 min
  Number of rays passed through by mice: 869
Mice [1]; Table Ia, 32 mg/kg oral, 30 min
  Number of rays passed through by mice: 783
Mice [1]; Table Ib, 2 mg/kg, route not given, 0 + 10 min
  Number of rays passed through by mice: 119
Mice [1]; Table Ib, 2 mg/kg, route not given, 30 + 20 min
  Number of rays passed through by mice: 221
Mice [1]; Table Ib, 2 mg/kg, route not given, 30 + 30 min
  Number of rays passed through by mice: 334
Mice [1]; Table Ib, 2 mg/kg, route not given, 30 min
  Number of rays passed through by mice: 417
Mice [1]; Table Ib, 4 mg/kg, route not given, 0 + 10 min
  Number of rays passed through by mice: 129
Mice [1]; Table Ib, 4 mg/kg, route not given, 30 + 20 min
  Number of rays passed through by mice: 259
Mice [1]; Table Ib, 4 mg/kg, route not given, 30 + 30 min
  Number of rays passed through by mice: 376
Mice [1]; Table Ib, 4 mg/kg, route not given, 30 min
  Number of rays passed through by mice: 472
Mice [1]; Table Ib, 8 mg/kg, route not given, 0 + 10 min
  Number of rays passed through by mice: 141
Mice [1]; Table Ib, 8 mg/kg, route not given, 30 + 20 min
  Number of rays passed through by mice: 286
Mice [1]; Table Ib, 8 mg/kg, route not given, 30 + 30 min
  Number of rays passed through by mice: 443
Mice [1]; Table Ib, 8 mg/kg, route not given, 30 min
  Number of rays passed through by mice: 452
Mice [1]; Table Ib, 16 mg/kg, route not given, 0 + 10 min
  Number of rays passed through by mice: 172
Mice [1]; Table Ib, 16 mg/kg, route not given, 30 + 20 min
  Number of rays passed through by mice: 359
Mice [1]; Table Ib, 16 mg/kg, route not given, 30 + 30 min
  Number of rays passed through by mice: 537
Mice [1]; Table Ib, 16 mg/kg, route not given, 30 min
  Number of rays passed through by mice: 565
Mice [1]; Table Ib, 32 mg/kg, route not given, 0 + 10 min
  Number of rays passed through by mice: 184
Mice [1]; Table Ib, 32 mg/kg, route not given, 30 + 20 min
  Number of rays passed through by mice: 376
Mice [1]; Table Ib, 32 mg/kg, route not given, 30 + 30 min
  Number of rays passed through by mice: 547
Mice [1]; Table Ib, 32 mg/kg, route not given, 30 min
  Number of rays passed through by mice: 560
Mice [2]; 2 mg/kg intraperitoneal
  % of mice which have slept: 100%
  Time in minutes for induction of sleep: 27 min
  Time in minutes of sleep: 67 ± 16 min
Mice [2]; 2 mg/kg oral
  % of mice which have slept: 83%
  Time in minutes for induction of sleep: 25 min
  Time in minutes of sleep: 47 ± 15 min
Mice [2]; 4 mg/kg intraperitoneal
  % of mice which have slept: 83%
